In patent publication US10550124B2, “Atropisomerism for increased kinase inhibitor selectivity” (SAN DIEGO STATE UNIVERSITY RESEARCH FOUNDATION, priority 2015, dated 2020):
pIC50: −log10 of the molar value.

Experiments:
Format in all cases: biochemical
[1] = target: Abl (Homo sapiens, UniProt P00519); experiment: Z′-LYTE kinase inhibition assay, Abl; conditions: for % inhibition: average of 2 runs
From the text: (§1) All samples were sent out to Life Technologies to obtain kinase inhibition data. A brief description of the assays and analyses are included below.
(§2) Assay Theory (SelectScreen® Kinase Profiling Services (Life Technologies, Madison, Wis. USA). The Z′-LYTE® biochemical assay employs a fluorescence-based, coupled-enzyme format and is based on the differential sensitivity of phosphorylated and non-phosphorylated peptides to proteolytic cleavage. The peptide substrate is labeled with two fluorophores one at each end—that make up a FRET pair.
(§3) In the primary reaction, the kinase transfers the gamma-phosphate of ATP to a single tyrosine, serine or threonine residue in a synthetic FRET-peptide. In the secondary reaction, a site-specific protease recognizes and cleaves non-phosphorylated FRET-peptides.
(§4) Phosphorylation of FRET-peptides suppresses cleavage by the Development Reagent. Cleavage disrupts FRET between the donor (i.e., coumarin) and acceptor (i.e., fluorescein) fluorophores on the FRET-peptide, whereas uncleaved, phosphorylated FRET-peptides maintain FRET. A ratiometric method, which calculates the ratio (the Emission Ratio) of donor emission to acceptor emission after excitation of the donor fluorophore at 400 nm, is used to quantitate reaction progress, as shown in the equation below: […]
(§5) A significant benefit of this ratiometric method for quantitating reaction progress is the elimination of well-to-well variations in FRET-peptide concentration and signal intensities. As a result, the assay yields very high Z′-factor values (>0.7) at a low percent phosphorylation. Both cleaved and uncleaved FRET-peptides contribute to the fluorescence signals and therefore to the Emission Ratio. The extent of phosphorylation of the FRET-peptide can be calculated from the Emission Ratio. The Emission Ratio will remain low if the FRET-peptide is phosphorylated (i.e., no kinase inhibition) and will he high if the FRET-peptide is non-phosphorylated (i.e., kinase inhibition).

[2] = target: Alk (Homo sapiens, UniProt Q9UM73); experiment: Z′-LYTE kinase inhibition assay, Alk; conditions: for % inhibition: average of 2 runs
From the text: as §1, §2, §3, §4, §5

[3] = target: Hck (Homo sapiens, UniProt P08631); experiment: Z′-LYTE kinase inhibition assay, Hck; conditions: for % inhibition: average of 2 runs
From the text: as §1, §2, §3, §4, §5

[4] = target: pdgfr-b (Homo sapiens, UniProt P09619); experiment: Z′-LYTE kinase inhibition assay, pdgfr-b; conditions: for % inhibition: average of 2 runs
From the text: as §1, §2, §3, §4, §5

[5] = target: Ret (Homo sapiens, UniProt P07949); experiment: Z′-LYTE kinase inhibition assay, Ret; conditions: for % inhibition: average of 2 runs
From the text: as §1, §2, §3, §4, §5

[6] = target: Her-2 (Homo sapiens, UniProt P04626); experiment: Z′-LYTE kinase inhibition assay, Her-2; conditions: average of 2 runs
From the text: as §1, §2, §3, §4, §5

[7] = target: Fgr (Homo sapiens, UniProt P09769); experiment: Z′-LYTE kinase inhibition assay, Fgr; conditions: for % inhibition: average of 2 runs
Sequence of Fgr (P09769 whole entry): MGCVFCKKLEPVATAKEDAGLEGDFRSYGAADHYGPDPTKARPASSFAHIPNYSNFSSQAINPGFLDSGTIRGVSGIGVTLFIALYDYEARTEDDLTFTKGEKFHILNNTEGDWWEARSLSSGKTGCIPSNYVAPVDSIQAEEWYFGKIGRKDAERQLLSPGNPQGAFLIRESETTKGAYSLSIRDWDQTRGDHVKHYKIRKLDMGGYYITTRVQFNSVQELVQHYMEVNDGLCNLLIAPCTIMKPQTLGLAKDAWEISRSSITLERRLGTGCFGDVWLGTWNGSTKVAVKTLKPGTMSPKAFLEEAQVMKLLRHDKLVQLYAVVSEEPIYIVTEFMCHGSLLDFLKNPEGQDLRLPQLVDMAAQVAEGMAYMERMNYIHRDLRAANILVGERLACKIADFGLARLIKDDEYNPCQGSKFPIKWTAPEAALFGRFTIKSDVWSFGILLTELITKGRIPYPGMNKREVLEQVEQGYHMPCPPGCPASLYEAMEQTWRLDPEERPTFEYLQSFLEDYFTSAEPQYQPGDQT
From the text: as §1, §2, §3, §4, §5

[8] = target: Fyn (Homo sapiens, UniProt P06241); experiment: Z′-LYTE kinase inhibition assay, Fyn; conditions: for % inhibition: average of 2 runs
Sequence of Fyn (P06241 whole entry): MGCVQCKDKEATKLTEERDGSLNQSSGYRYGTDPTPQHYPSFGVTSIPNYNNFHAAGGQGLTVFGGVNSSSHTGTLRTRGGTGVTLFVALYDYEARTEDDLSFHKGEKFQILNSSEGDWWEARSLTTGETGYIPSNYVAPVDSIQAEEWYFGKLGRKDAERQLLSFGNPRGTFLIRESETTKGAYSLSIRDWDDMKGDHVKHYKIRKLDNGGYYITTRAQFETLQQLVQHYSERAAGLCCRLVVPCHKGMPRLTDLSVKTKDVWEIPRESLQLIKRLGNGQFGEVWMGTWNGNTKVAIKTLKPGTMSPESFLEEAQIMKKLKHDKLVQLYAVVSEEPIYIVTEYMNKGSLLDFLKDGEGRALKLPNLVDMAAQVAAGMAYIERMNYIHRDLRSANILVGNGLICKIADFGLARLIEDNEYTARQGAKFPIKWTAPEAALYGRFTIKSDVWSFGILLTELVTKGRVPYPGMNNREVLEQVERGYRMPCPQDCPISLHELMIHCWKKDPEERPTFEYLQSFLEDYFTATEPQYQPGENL
From the text: as §1, §2, §3, §4, §5

[9] = target: Src kinase (Homo sapiens, UniProt P12931); experiment: Z′-LYTE kinase inhibition assay, Src
From the text: Based on the observed stereochemical stabilities, we chose 1f, 2e, and 2f for further study and obtained inhibition data against Src kinase from Life Technologies' Z′-LYTE™ kinase assay (Scheme 3).
as §1, §2, §3, §4, §5

[10] = target: pdgfr-a (Homo sapiens, UniProt P16234); experiment: Z′-LYTE kinase inhibition assay, pdgfr-a; conditions: for % inhibition: average of 2 runs
From the text: as §1, §2, §3, §4, §5

[11] = target: Kit (Homo sapiens, UniProt P10721); experiment: Z′-LYTE kinase inhibition assay, Kit; conditions: for % inhibition: average of 2 runs
From the text: as §1, §2, §3, §4, §5

[12] = target: BTK (Homo sapiens, UniProt Q06187); experiment: Z′-LYTE kinase inhibition assay, BTK; conditions: for % inhibition: average of 2 runs
From the text: as §1, §2, §3, §4, §5

[13] = tested on: panel of 18 tyrosine kinases; experiment: Kinase inhibitor profiling across a panel of tyrosine kinases (selectivity); conditions: for S(40%): number of kinases inhibited greater than 40% divided by number of kinases tested (including Src)
Experimental: In order to probe the effect of atropisomeric conformation on kinase selectivity we subjected 1f, 2e, and 2f to kinase inhibitor profiling across a panel of tyrosine kinases at 1000 nM and 5000 nM (data for 2e shown in Scheme 4 below).
To analyze each analog's selectivity across the panel we turned to selectivity scores (Davis et al., Nat. Biotechnol. 2011, 29, 1046-51), simply the number of kinases inhibited above a certain threshold divided by the number of kinases evaluated. […] For example at 1000 nM 2e-(R) yielded an S(40%) of 0.11 while 2e-(S) gave an S(40%) of 0.16. […] Differences in selectivity between 2e-(R) and 2e-(S) at 5000 nM (4.5 times the IC50 of 2e-(S) toward Src) and for 5 at 1000 nM (6.25 times the IC50 of 5 toward Src) can be viewed graphically across tyrosine kinases (FIG. 3). Importantly, similar trends were also observed across each of the atropisomeric series tested.
as §1, §2, §3, §4, §5

[14] = target: EGFR (Homo sapiens, UniProt P00533); experiment: Z′-LYTE kinase inhibition assay, EGFR; conditions: for % inhibition: average of 2 runs
Sequence of EGFR (P00533 25-1210): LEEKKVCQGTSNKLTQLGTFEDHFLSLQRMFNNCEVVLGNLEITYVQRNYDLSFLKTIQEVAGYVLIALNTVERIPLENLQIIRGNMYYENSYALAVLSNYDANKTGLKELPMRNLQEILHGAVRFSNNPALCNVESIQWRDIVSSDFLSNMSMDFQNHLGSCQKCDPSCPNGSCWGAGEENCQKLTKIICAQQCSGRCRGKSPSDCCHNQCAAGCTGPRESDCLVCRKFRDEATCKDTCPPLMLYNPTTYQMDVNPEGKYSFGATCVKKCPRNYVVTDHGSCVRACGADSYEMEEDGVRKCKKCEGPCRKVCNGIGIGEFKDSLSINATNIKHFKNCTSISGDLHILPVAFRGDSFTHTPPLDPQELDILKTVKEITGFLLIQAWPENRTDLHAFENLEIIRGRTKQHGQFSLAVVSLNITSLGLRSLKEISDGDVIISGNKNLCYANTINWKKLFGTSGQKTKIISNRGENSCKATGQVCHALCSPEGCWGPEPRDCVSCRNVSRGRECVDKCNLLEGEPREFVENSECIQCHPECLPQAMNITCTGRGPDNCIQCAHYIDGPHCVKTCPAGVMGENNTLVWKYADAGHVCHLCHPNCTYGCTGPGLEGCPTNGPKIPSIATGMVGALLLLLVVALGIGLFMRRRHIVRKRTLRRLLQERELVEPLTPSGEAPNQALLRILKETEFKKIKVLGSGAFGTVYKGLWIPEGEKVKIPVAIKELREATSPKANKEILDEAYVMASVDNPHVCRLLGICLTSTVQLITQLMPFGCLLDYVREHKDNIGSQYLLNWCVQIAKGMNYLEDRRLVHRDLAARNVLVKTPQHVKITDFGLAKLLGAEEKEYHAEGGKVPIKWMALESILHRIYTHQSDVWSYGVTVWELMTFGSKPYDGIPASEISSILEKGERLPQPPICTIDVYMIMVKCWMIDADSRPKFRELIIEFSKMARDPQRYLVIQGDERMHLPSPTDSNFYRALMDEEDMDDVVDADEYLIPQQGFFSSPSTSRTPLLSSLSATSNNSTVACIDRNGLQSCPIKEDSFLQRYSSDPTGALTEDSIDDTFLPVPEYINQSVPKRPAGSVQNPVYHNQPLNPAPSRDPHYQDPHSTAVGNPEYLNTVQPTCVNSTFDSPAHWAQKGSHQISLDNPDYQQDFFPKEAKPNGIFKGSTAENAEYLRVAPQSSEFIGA
From the text: as §1, §2, §3, §4, §5

[15] = target: Lyn (Homo sapiens, UniProt P07948); experiment: Z′-LYTE kinase inhibition assay, Lyn; conditions: for % inhibition: average of 2 runs
Sequence of Lyn (P07948 whole entry): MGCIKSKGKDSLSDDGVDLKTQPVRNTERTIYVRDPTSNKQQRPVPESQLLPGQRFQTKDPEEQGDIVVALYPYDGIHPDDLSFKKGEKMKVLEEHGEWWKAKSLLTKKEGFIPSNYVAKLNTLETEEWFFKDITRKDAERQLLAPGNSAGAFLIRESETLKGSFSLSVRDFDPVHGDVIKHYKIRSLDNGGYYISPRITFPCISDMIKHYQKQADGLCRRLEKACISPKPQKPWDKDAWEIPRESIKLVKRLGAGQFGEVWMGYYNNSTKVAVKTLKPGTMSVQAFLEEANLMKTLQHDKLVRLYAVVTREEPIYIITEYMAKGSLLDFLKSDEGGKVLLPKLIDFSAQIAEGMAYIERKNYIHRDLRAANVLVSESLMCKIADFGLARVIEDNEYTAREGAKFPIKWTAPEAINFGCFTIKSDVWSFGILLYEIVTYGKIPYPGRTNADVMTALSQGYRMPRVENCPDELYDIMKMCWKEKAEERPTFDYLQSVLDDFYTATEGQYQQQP
From the text: as §1, §2, §3, §4, §5

[16] = target: CSK (Homo sapiens, UniProt P41240); experiment: Z′-LYTE kinase inhibition assay, CSK; conditions: for % inhibition: average of 2 runs
From the text: as §1, §2, §3, §4, §5

[17] = target: Lck (Homo sapiens, UniProt P06239); experiment: Z′-LYTE kinase inhibition assay, Lck; conditions: for % inhibition: average of 2 runs
Sequence of Lck (P06239 whole entry): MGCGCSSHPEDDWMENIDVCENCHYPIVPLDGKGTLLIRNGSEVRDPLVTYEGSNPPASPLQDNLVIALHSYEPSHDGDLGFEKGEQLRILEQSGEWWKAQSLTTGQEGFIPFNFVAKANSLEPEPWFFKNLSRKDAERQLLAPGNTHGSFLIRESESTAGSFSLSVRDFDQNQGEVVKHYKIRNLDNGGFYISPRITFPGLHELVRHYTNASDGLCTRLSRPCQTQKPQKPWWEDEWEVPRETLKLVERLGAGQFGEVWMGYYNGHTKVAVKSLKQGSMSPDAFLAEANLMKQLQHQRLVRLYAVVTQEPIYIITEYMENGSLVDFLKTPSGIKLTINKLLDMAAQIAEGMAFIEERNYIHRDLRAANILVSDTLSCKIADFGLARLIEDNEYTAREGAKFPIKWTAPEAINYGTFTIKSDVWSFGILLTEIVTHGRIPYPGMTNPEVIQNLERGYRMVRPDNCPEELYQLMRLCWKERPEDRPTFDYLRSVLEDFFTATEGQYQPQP
From the text: as §1, §2, §3, §4, §5

[18] = target: Blk (Homo sapiens, UniProt P51451); experiment: Z′-LYTE kinase inhibition assay, Blk; conditions: for % inhibition: average of 2 runs
Sequence of Blk (P51451 whole entry): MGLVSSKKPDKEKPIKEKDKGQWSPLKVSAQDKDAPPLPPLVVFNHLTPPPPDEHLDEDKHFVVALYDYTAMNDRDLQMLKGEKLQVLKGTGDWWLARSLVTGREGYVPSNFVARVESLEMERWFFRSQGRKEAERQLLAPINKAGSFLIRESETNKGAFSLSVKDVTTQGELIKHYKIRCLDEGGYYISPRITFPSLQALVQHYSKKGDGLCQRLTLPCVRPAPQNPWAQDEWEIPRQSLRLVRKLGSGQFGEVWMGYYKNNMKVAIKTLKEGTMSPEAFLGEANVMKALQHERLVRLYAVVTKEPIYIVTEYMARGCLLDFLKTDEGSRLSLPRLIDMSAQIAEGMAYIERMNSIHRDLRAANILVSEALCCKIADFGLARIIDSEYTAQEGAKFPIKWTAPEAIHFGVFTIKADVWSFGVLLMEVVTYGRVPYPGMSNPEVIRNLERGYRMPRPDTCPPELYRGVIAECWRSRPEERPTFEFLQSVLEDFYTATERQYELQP
From the text: as §1, §2, §3, §4, §5

[19] = target: Yes (Homo sapiens, UniProt P07947); experiment: Z′-LYTE kinase inhibition assay, Yes; conditions: for % inhibition: average of 2 runs
From the text: as §1, §2, §3, §4, §5

[20] = % inhibition 2e-(S)/% inhibition 2e-(R) at 5000 nM

Sequence of Abl (P00519 whole entry): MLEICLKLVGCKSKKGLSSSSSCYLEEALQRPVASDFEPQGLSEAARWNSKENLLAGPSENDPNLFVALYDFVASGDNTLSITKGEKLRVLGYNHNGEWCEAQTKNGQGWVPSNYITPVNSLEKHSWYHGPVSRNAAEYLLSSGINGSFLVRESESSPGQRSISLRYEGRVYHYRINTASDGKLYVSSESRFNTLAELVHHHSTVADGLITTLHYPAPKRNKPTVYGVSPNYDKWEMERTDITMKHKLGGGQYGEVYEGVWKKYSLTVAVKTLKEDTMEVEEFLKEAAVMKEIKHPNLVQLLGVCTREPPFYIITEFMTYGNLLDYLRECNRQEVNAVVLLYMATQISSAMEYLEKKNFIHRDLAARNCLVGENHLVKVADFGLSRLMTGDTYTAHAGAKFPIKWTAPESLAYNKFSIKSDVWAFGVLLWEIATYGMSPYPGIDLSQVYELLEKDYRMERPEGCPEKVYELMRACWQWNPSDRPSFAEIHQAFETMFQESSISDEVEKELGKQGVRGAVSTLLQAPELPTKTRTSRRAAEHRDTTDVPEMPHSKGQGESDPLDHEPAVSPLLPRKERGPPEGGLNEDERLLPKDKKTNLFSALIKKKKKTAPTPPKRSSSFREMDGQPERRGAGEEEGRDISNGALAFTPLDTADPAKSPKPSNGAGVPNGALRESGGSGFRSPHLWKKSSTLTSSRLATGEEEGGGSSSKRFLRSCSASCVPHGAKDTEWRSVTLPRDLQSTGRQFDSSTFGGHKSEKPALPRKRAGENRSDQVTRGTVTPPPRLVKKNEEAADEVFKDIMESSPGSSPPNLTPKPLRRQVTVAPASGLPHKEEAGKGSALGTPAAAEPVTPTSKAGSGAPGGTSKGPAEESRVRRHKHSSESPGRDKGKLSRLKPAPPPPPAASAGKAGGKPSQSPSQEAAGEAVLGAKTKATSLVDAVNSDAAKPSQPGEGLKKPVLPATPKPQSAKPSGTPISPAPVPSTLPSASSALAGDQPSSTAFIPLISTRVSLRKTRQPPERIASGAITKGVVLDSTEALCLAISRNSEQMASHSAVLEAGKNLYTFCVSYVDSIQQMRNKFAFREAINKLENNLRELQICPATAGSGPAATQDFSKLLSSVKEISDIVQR

IC50 of Kinase/IC50 of Yes ([1]; Abl relative to Yes): 1.96
% inhibition ([1]; Abl, 1000 nM, 1 µM): 36%
% inhibition ([1]; Abl, 5000 nM): 67%
% inhibition ([1]; Abl, 5000 nM, 5 µM): 67%
SIR (5000 nM) ([1]; Abl, % inhibition 2e-(S)/% inhibition 2e-(R) at 5000 nM): 2.57
pIC50 ([1]; Abl, error is standard deviation): 5.84
% inhibition ([2]; 1000 nM, 1 µM): 5%
% inhibition ([2]; 5000 nM, 5 µM): 7%
SIR (5000 nM) [2, 20]: 0.38
% inhibition ([3]; 1000 nM, 1 µM): 32%
% inhibition ([3]; 5000 nM, 5 µM): 50%
SIR (5000 nM) [3, 20]: 1.25
% inhibition ([4]; 1000 nM, 1 µM): 13%
% inhibition ([4]; 5000 nM, 5 µM): 16%
SIR (5000 nM) [4, 20]: 1.23
IC50 of Kinase/IC50 of Yes ([5]; Ret relative to Yes): 10.53
% inhibition ([5]; Ret, 1000 nM, 1 µM): 14%
% inhibition ([5]; Ret, 5000 nM): 32%
% inhibition ([5]; Ret, 5000 nM, 5 µM): 32%
SIR (5000 nM) ([5]; Ret, % inhibition 2e-(S)/% inhibition 2e-(R) at 5000 nM): 0.44
pIC50 ([5]; Ret, error is standard deviation): 5.12
% inhibition ([6]; 1000 nM, 1 µM): −7%
% inhibition ([6]; 5000 nM): 0%
% inhibition ([7]; 1000 nM, 1 µM): 58%
% inhibition ([7]; 5000 nM, 5 µM): 81%
SIR (5000 nM) [7, 20]: 1.05
% inhibition ([8]; 1000 nM, 1 µM): 26%
% inhibition ([8]; 5000 nM, 5 µM): 56%
SIR (5000 nM) [8, 20]: 1.27
IC50 of Kinase/IC50 of Yes ([9]; Src relative to Yes): 1.64
pIC50 ([9]; Src, error is standard deviation): 5.92
% inhibition ([10]; 1000 nM): 3%
% inhibition ([10]; 5000 nM, 5 µM): 13%
SIR (5000 nM) [10, 20]: 1.63
% inhibition ([11]; 1000 nM, 1 µM): 18%
% inhibition ([11]; 5000 nM, 5 µM): 36%
SIR (5000 nM) [11, 20]: 1.38
% inhibition ([12]; 1000 nM, 1 µM): 18%
% inhibition ([12]; 5000 nM, 5 µM): 54%
SIR (5000 nM) [12, 20]: 1.86
S(40%) ([13]; 1000 nM): 0.16
S(40%) ([13]; 5000 nM): 0.61
increase of 5's inherent selectivity ([13]; less potent towards Ret): ~8 fold
IC50 of Kinase/IC50 of Yes ([14]; EGFR relative to Yes): >10.0
% inhibition ([14]; EGFR, 1000 nM, 1 µM): 10%
% inhibition ([14]; EGFR, 5000 nM, 5 µM): 21%
pIC50 ([14]; EGFR, error is standard deviation): < 5.00
% inhibition ([15]; 1000 nM, 1 µM): 36%
% inhibition ([15]; 5000 nM, 5 µM): 75%
SIR (5000 nM) [15, 20]: 1.31
% inhibition ([16]; 1000 nM, 1 µM): 19%
% inhibition ([16]; 5000 nM, 5 µM): 45%
SIR (5000 nM) [16, 20]: 1.28
% inhibition ([17]; 1000 nM, 1 µM): 26%
% inhibition ([17]; 5000 nM, 5 µM): 54%
SIR (5000 nM) [17, 20]: 1.05
% inhibition ([18]; 1000 nM, 1 µM): 21%
% inhibition ([18]; 5000 nM, 5 µM): 47%
SIR (5000 nM) [18, 20]: 1.46
IC50 of Kinase/IC50 of Yes ([19]; Yes relative to Yes): 1
% inhibition ([19]; Yes, 1000 nM): 53%
% inhibition ([19]; Yes, 5000 nM, 5 µM): 77%
SIR (5000 nM) ([19]; Yes, % inhibition 2e-(S)/% inhibition 2e-(R) at 5000 nM): 0.97
pIC50 ([19]; Yes, error is standard deviation): 6.14
Structure (SMILES): COc1ccc(Cl)c(-c2c(Cl)n(C(C)(C)C)c3ncnc(N)c23)c1 (single isomer, unassigned) [2e-(S), 7-(tert-butyl)-6-chloro-5-(2-chloro-5-methoxyphenyl)-7H-pyrrolo[2,3d]pyrimidin-4-amine]
